6 molecules from US6342481B1, “Oligopeptides derived from C-reactive protein fragments” (priority 1993, dated 2002) can be followed below.

Assay [1] relates to Sprague Dawley rats injected with LPS (Salmonella Enteritidis). In words: Survival of rats after intravenous LPS (septic shock test). The note with it: male Sprague Dawley rats, LPS i.v. at dose giving about 30% survival, compound 3 μg/kg i.v. immediately after, monitored 7 days; control (LPS only) 23. It counts as in vivo, rat. As to the method: Male Sprague Dawley rats (175-200 g, Charles river, Calco, Italy) were intravenously injected with a dose of LPS (Salmonella Enteritidis, Sigma) in 0.2 ml of physiological solution, previously determined on the same batch of animals, as giving about 30% survival. Thereafter they were randomized into groups of at least 18 animals and each immediately inoculated intravenously with 3 μg/kg of some of the compounds representative of the invention. One group of animals was treated with LPS only and considered as the control. The animals were monitored for the following 7 days to determine their survival.

The subject of assay [2] is Wistar rats with left coronary artery ligation. In words: Cardioprotective activity following ischemia induced by occlusion of the left coronary artery in the anesthetized rat. It counts as in vivo. The note with it: anesthetized male Wistar rats, 0.1 μg/kg/min i.v., left coronary artery ligated for 30 minutes. The text has this: The cardiovascular activity of the compounds of the invention was investigated by means of a test aiming at evaluating the cardioprotective activity following ischemia induced by the occlusion of the left coronary artery in the anestethized rat, performed substantially as described by C. Clark et al. Journ. Exp. Methods, 3, 357, 1980. It is known that the occlusion of the coronary artery causes several events altering the ECG-pattern including, among others, hypoxia, arrhythmias, with eventual death of the laboratory animals.
In this test, male Wistar rats, (350-450 g, Charles River) were divided into groups of at least 18 animals, anestethized with nembutal (65 mg/kg i.p.) and each connected to an electrocardiograph for continuously monitoring the ECG. The animals, maintained under artificial ventilation, underwent thoracotomy and, after incision of the pericardium, a suture thread was passed around the left coronary artery, near to its origins. The animals were then administered intravenously with 0.1 μg/kg/min of the compounds of the invention dissolved in saline. One group of animals (control group) were administered intravenously with saline (5 ml/kg/hr). After 15 minutes recovery, and provided that electocardiographic alteration was not recorded, the left coronary artery was ligated and the ligature was maintained for 30 minutes. During this period the animals were monitored and ventricular tachycardia (VT), ventricular fibrillations (VF) and mortality were7 assessed.

Residues, ends and D or L forms follow the SMILES beside them.

For “H-Gly-(Et)Lys-Pro-Arg-OH.2AcOH [Example 15]”, in assay [1], the Survival percentage stood at 33%. Same read-out and setting: for `CC(C)CN(C(=O)CN)[C@@H](CCCCN)C(=O)N1CCC[C@H]1C(=O)O` [Example 9, H-Gly-(isoBut)Lys-Pro-OH.AcOH] the value was 39%; for “H-Gly-(Bzl)Lys-Pro-Arg-OH.2AcOH [Example 10]”, 43%; for “H-Gly-(Et)Lys-Pro-Lys-OH.AcOH [Example 14]”, 48%. Regarding `N=C(N)NCCC[C@H](NC(=O)[C@@H]1CCCN1C(=O)[C@@H]1CCCN1C(=O)CN)C(=O)O` [Example 11, H-Gly-Pro-Pro-Arg-OH.AcOH] (H-GPPR-OH), the Survival percentage in assay [1] is listed as 57%.

For `CCN[C@@H](CCCCN)C(=O)N1CCC[C@H]1C(=O)O` [Example 12, H-(Et)Lys-Pro-OH.AcOH], the Mortality % in assay [2] (control 29) came to 12%. In addition, the “Incidence % V.F. (ventricular fibrillations)” value in assay [2] (control 86) is listed as 75%. The “Incidence % V.T. (ventricular tachycardia)” value in assay [2] (control 100) was 10%. The molecule also had a Survival percentage in assay [1] of 44%.
